Results reported in patent US20080267948A1, “Croos-B Structure Binding Compounds” (priority 2005, published 2008).
“Also recorded” adds a separate entry of the source.

What was measured:
Hb-AGE [1] = molecular target: T1, Hb-AGE (Homo sapiens, UniProt P68871+P69905); test: ELISA binding of tPA to immobilized Hb-AGE after pre-incubation with compounds; conditions: then tPA; for influence on tPA binding to immobilized Hb-AGE: Hb-AGE first overlayed with compound (concentration series); for % tPA binding (after compound incubation), HbAGE: immobilized Hb-AGE first exposed to 500 μg/ml compound, control = 100
T1 construct: purchased Sigma-Aldrich H7379
T1 sequence (P69905 2-142 limits assumed): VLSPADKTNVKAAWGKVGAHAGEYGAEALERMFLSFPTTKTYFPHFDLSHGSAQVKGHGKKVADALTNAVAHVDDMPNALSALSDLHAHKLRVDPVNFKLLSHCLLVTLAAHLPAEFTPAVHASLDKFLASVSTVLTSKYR
T1 sequence (P68871 2-147 limits assumed): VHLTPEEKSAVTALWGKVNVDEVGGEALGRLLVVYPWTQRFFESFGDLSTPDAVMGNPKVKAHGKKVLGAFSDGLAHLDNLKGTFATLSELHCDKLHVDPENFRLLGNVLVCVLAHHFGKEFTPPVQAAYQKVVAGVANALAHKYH
Procedure: Compounds were now diluted 10× in PBS/0.1% Tween20 (500 μg/ml compound). […] With the selection, similar binding assays are performed with misfolded OVA and Aβ. Finally, concentration series of the selected compounds are used in the binding studies.

amyloid-β(1-40) E22Q = molecular target: T2, amyloid-β(1-40) E22Q (Homo sapiens, UniProt P05067, E693Q); test: ELISA binding of tPA to immobilized Aβ after pre-incubation with compounds; conditions: for influence on tPA binding to immobilized Aβ: Aβ first overlayed with compound (concentration series), then tPA; for % tPA binding (after compound incubation), Aβ: 1 μg/ml coated Aβ first exposed to 500 μg/ml compound, then 80 nM tPA, control = 100
T2 construct: For similar ELISA's with DOVA and Aβ(1-40) E22Q, 1 μg/ml DOVA or Aβ was coated; purchased Peptide facility, Dutch Cancer Institute, Amsterdam; host or cells: synthetic peptide
T2 sequence (P05067 672-711 E693Q): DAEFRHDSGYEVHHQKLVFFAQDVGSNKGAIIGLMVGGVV
Procedure: (§1) Compounds were now diluted 10× in PBS/0.1% Tween20 (500 μg/ml compound). […] With this approach a further selection of the compounds was achieved. Now, compounds that at least interact with HB-AGE are selected. With the selection, similar binding assays are performed with misfolded OVA and Aβ. Finally, concentration series of the selected compounds are used in the binding studies.

Hb-AGE [2] = molecular target: T1, Hb-AGE; test: Binding of Hb-AGE from solution to immobilized small compounds
Procedure: To test the ability of the twelve selected compounds (see Table 7) to bind to misfolded proteins, […] Greiner Microlon high binding plates, Nunc amino Immobilizer plates and Nunc Maxisorp plates. Compounds were coated in 100 mM NaHCO3 pH 9.6, 50 μl/well, 1 h at room temperature with agitation. As a control, wells were coated with buffer only. After blocking of the plates, wells were overlayed with solutions of 0.1/1/10 μg/ml Hb-AGE or 10/100 μg/ml Aβ, in binding buffer (PBS/0.1% Tween20). After washing, binding of Hb-AGE was assessed by overlaying wells with 1 μg/ml hybridoma antibody 4B5, which binds to glycations(^2), followed by RAMPO. Binding of Aβ was visualized using 500× diluted anti-Aβ antibodies (mouse antibody beta-amyloid Clone 6F/3D #M0872, lot 00003503, DAKOCytomation; β-amyloid (H-43) SC-9129, 200 μg/ml rabbit polyclonal IgG, Santa Cruz Biotechnology) and RAMPO/SWARPO in a 1:1 ratio. Finally, wells were overlayed with OPD/H2O2 solution, and H2SO4, before absorbance readings at 490 nm.

ovalbumin = molecular target: T3, ovalbumin (Gallus gallus, UniProt P01012); test: Transmission electron microscopy of ovalbumin heated in the presence of small compounds; design: species or system chicken; conditions: 1 mg/ml ovalbumin heated with 1 mg/ml compound
T3 construct: purchased Sigma A5503
T3 sequence (P01012 1-386): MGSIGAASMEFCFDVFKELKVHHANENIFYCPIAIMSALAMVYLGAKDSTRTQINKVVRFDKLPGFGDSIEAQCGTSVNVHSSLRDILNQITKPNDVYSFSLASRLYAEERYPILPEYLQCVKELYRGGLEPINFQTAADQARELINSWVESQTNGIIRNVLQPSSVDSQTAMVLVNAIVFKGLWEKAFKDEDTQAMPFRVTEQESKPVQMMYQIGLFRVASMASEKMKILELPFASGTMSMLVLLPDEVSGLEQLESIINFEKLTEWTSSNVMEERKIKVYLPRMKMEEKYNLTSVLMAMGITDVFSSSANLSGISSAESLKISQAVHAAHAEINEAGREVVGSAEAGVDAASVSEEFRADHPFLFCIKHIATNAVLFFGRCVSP
Summary of the method: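 Ovalbumin at 1 mg/ml was applied to carbon-coated Formvar copper grids, washed with PBS and water, then stained 2 min in 2% methylcellulose with 0.4% uranyl acetate, pH 4. Grids were dried and imaged by TEM at 80 kV.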

[3] = molecular target: T4, heat-denatured misfolded ovalbumin (DOVA) (Gallus gallus, UniProt P01012); test: ELISA binding of tPA to immobilized misfolded ovalbumin after pre-incubation with compounds; design: species or system chicken; conditions: for influence on tPA binding to immobilized misfolded OVA: misfolded OVA first overlayed with compound (concentration series), then tPA; for activity at 500 µg/mL: read-out: % tPA binding (after compound incubation), DOVA
T4 construct: purchased Sigma A5503
T4 sequence (P01012 2-386 limits assumed): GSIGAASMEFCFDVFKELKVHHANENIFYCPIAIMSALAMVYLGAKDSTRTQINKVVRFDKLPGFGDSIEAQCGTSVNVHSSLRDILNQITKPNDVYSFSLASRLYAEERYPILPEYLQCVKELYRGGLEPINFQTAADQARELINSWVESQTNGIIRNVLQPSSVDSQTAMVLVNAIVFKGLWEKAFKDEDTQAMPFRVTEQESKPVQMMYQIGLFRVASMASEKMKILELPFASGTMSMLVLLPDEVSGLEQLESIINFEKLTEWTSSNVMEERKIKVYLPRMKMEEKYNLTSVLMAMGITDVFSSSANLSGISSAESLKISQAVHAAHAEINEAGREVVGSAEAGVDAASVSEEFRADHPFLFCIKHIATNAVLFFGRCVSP
Procedure: as §1

heat-denatured ovalbumin = molecular target: T5, heat-denatured ovalbumin (Gallus gallus, UniProt P01012); test: Thioflavin T fluorescence of ovalbumin and small compounds; design: species or system chicken
T5 construct: purchased Sigma A5503
T5 sequence (P01012 1-386): T3 sequence (P01012 1-386)
Summary of the method: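 Heat-denatured ovalbumin at 1 mg/ml in PBS, alone, with 1% v/v DMSO or with 1 mg/ml compound (also heat-denatured after compound addition), mixed 1:9 with 25 μM ThT in 50 mM glycine pH 9.0. Fluorescence read in duplicate at 435 nm excitation, 485 nm emission.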

Row | SMILES | influence on tPA binding to immobilized Hb-AGE (Hb-AGE [1]) | influence on tPA binding to immobilized Aβ (amyloid-β(1-40) E22Q) | Signal (a.u.) (Hb-AGE [2]; Greiner Microlon, coat 100 μg/ml, Hb-AGE 10 μg/ml) | Signal (a.u.) (Hb-AGE [2]; Nunc Maxisorp, coat 100 μg/ml, Hb-AGE 10 μg/ml) | appearance of ovalbumin heated in the presence of compound on TEM image (ovalbumin; hydrate) | influence on tPA binding to immobilized misfolded OVA [3] | influence on Thioflavin T fluorescence with misfolded OVA (heat-denatured ovalbumin; 1 mg/ml compound, 1 mg/ml OVA) | reduction in Thioflavin T fluorescence enhancement, compound and OVA heated together (heat-denatured ovalbumin; 1 mg/ml compound, 1 mg/ml OVA, PBS/1% DMSO) [%] | inhibition at 1000 µg/mL (heat-denatured ovalbumin; 1 mg/ml compound, 1 mg/ml OVA, PBS/1% DMSO, read-out: inhibition of Thioflavin T fluorescence, compound mixed with pre-formed misfolded OVA) [%] | formation of Thioflavin T binding sites in heated OVA (heat-denatured ovalbumin; OVA and compound heated together) | % tPA binding (after compound incubation), HbAGE (Hb-AGE [1]) [%] | % tPA binding (after compound incubation), Aβ (amyloid-β(1-40) E22Q) [%] | Signal (a.u.) (Hb-AGE [2]; Nunc Maxisorp, coat 100 μg/ml, Hb-AGE 1 μg/ml) | Signal (a.u.) (Hb-AGE [2]; Nunc amino Immobilizer, coat 1 μg/ml, Hb-AGE 10 μg/ml) | appearance of ovalbumin heated in the presence of compound on TEM image (ovalbumin) | activity at 500 µg/mL [3] [%] | Signal (a.u.) (Hb-AGE [2]; Nunc Maxisorp, coat 100 μg/ml, Hb-AGE 0.1 μg/ml)
1 | O=c1oc2c(O)c(O)cc3c(=O)oc4c(O)c(O)cc1c4c23 [compound 117, Ellagic acid hydrate] | Stimulated tPA binding to immobilized misfolded protein (Hb- | Stimulated tPA binding to immobilized misfolded protein (Hb- | 0.13 | 0.15 | less OVA aggregates after heating in the presence of the; also recorded: Clusters of needle-like structures. No aggregates | Stimulated tPA binding to immobilized misfolded protein (Hb- | Inhibition on Thioflavin T fluorescence with misfolded OVA | 90 | ~50 | Inhibition of formation of Thioflavin T binding sites in heated |  |  |  |  |  |  | 
2 | COc1cc2c(cc1O)C[C@H]1c3c(cc(OC)c(O)c3-2)CCN1C [compound 202, Isoboldine] | Stimulated tPA binding to immobilized misfolded protein (Aβ, | Stimulated tPA binding to immobilized misfolded protein (Aβ, |  |  |  | Stimulated tPA binding to immobilized misfolded protein (Aβ, | Inhibition on Thioflavin T fluorescence with misfolded OVA |  |  |  | 250 | 250 | 0.46 | 0.20 | Larger and more dense aggregates than control. Small | 420 | 
3 | COc1cc2c(cc1OC)-c1c(O)c(OC)cc3c1[C@H](C2)N(C)CC3 [compound 201, Thaliporphine, thalicmidine] | Stimulated tPA binding to immobilized misfolded protein (Hb- |  |  |  |  |  | Inhibition of Thioflavin T fluorescence with misfolded OVA |  |  |  | 110 | 400 |  |  | Spherical aggregates with background of smaller | 400 | 0.55
